# Values joined by “and” are separate entries in the source; they are usually repeats but may differ in a detail not shown here. Identical values can stand only once. Results filed as inconclusive are left out. *1 amine or outer side, *2 acyl side, *3 side chain or, on linkers, in order; H or OH if unused. Where a SMILES comes first, the peptide text is derived from it. Bridges are numbered along the chain shown (N, C = ends). Roman numbers before positions name the chains, in order. [ ]: non-standard residue; d: D form. Actinocin(1to9) = Cc1c2oc3c(C)ccc(C(=O)[*:2])c3nc-2c(C(=O)[*:1])c(N)c1=O; X1 = O=C1CC(C(=O)[*:2])N([*:1])C1; NMeV = CN[CH](C(=O)O)C(C)C; Sar = CNCC(=O)O
# Test system: BDF1 mice, s.c. Lewis lung carcinoma, T/C %
# Experiment: NCI In Vivo Anticancer Drug Screen. Data for tumor model Lewis Lung Carcinoma (subcutaneous) in B6D2F1 (BDF1) mice
# Procedure, shortened: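 Tumor-bearing mice were treated with test compound, and either survival or tumor size was recorded. Values are the treated-group measurement divided by that of the vehicle-treated control group.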
# [1] = endpoint: median survival time, dose: 6.25 mg/kg/injection, schedule: Q01DX009 (ip), vehicle: Klucel (hydroxypropylcellulose) (HPC), higher = longer survival
# [2] = endpoint: median survival time, dose: 25.0 mg/kg/injection, schedule: Q01DX009 (ip), vehicle: Klucel (hydroxypropylcellulose) (HPC), higher = longer survival
smiles,measurement,setting,value
C[C@]12CCC(=O)C=C1CC[C@@H]1[C@@H]2C(=O)C[C@@]2(C)[C@H]1CC[C@]2(O)C(=O)CO,T/C,"endpoint: mean tumor weight, dose: 100.0 mg/kg/injection, schedule: Q01DX011 (ip), vehicle: steriod suspending solution, higher = larger tumour",58 % of control
same,T/C,"endpoint: median survival time, dose: 5.0 mg/kg/injection, schedule: Q02DX009 (ip), vehicle: Klucel (hydroxypropylcellulose) (HPC), higher = longer survival",102 % of control
same,T/C,"endpoint: median survival time, dose: 10.0 mg/kg/injection, schedule: Q02DX009 (ip), vehicle: Klucel (hydroxypropylcellulose) (HPC), higher = longer survival",102 % of control
same,T/C,"endpoint: median survival time, dose: 20.0 mg/kg/injection, schedule: Q02DX009 (ip), vehicle: Klucel (hydroxypropylcellulose) (HPC), higher = longer survival",101 % of control
same,T/C,"endpoint: median survival time, dose: 40.0 mg/kg/injection, schedule: Q02DX009 (ip), vehicle: Klucel (hydroxypropylcellulose) (HPC), higher = longer survival",97 % of control and 102 % of control
CC(=O)c1c(O)c(C)c(O)c2c1OC1=CC(=O)C(C(C)=O)C(=O)C12C (centres undefined),T/C,"endpoint: median survival time, dose: 6.25 mg/kg/injection, schedule: Q01DX009 (ip), vehicle: gum acacia, higher = longer survival",111 % of control
same,T/C,"endpoint: median survival time, dose: 12.5 mg/kg/injection, schedule: Q01DX009 (ip), vehicle: gum acacia, higher = longer survival",95 % of control and 110 % of control
same,T/C,"endpoint: median survival time, dose: 25.0 mg/kg/injection, schedule: Q01DX009 (ip), vehicle: gum acacia, higher = longer survival",101 % of control and 102 % of control and 123 % of control
same,T/C,"endpoint: median survival time, dose: 50.0 mg/kg/injection, schedule: Q01DX009 (ip), vehicle: gum acacia, higher = longer survival",101 % of control and 113 % of control and 115 % of control
same,T/C,"endpoint: median survival time, dose: 100.0 mg/kg/injection, schedule: Q01DX009 (ip), vehicle: gum acacia, higher = longer survival",98 % of control and 116 % of control and 123 % of control
same,T/C,"endpoint: median survival time, dose: 200.0 mg/kg/injection, schedule: Q01DX009 (ip), vehicle: gum acacia, higher = longer survival",106 % of control
Cc1cnc(/C=N\NC(N)=S)c2cccc(N)c12,T/C,[1],112 % of control
same,T/C,"endpoint: median survival time, dose: 6.25 mg/kg/injection, schedule: Q01DX009 (ip), vehicle: saline with Tween-80, higher = longer survival",106 % of control
same,T/C,"endpoint: median survival time, dose: 12.5 mg/kg/injection, schedule: Q01DX009 (ip), vehicle: Klucel (hydroxypropylcellulose) (HPC), higher = longer survival",90 % of control
same,T/C,"endpoint: median survival time, dose: 12.5 mg/kg/injection, schedule: Q01DX009 (ip), vehicle: saline with Tween-80, higher = longer survival",110 % of control
same,T/C,[2],86 % of control
same,T/C,"endpoint: median survival time, dose: 25.0 mg/kg/injection, schedule: Q01DX009 (ip), vehicle: saline with Tween-80, higher = longer survival",117 % of control
same,T/C,"endpoint: median survival time, dose: 50.0 mg/kg/injection, schedule: Q01DX009 (ip), vehicle: Klucel (hydroxypropylcellulose) (HPC), higher = longer survival",95 % of control
"Cc1c2oc3c(C)ccc(C(=O)NC4C(=O)NC(C(C)C)C(=O)N5CCCC5C(=O)N(C)CC(=O)N(C)C(C(C)C)C(=O)OC4C)c3nc-2c(C(=O)NC2C(=O)NC(C(C)C)C(=O)N3CC(=O)CC3C(=O)N(C)CC(=O)N(C)C(C(C)C)C(=O)OC2C)c(N)c1=O (centres undefined) (I: TV[X1][Sar][NMeV] / II: TVP[Sar][NMeV]; ester I:1-I:C, II:1-II:C; linker I:N-II:N via Actinocin(1to9); configuration not given here)",T/C,"endpoint: median survival time, dose: 3.1 micrograms/kg/injection, schedule: Q01DX009 (ip), vehicle: water, higher = longer survival",112 % of control
same,T/C,"endpoint: median survival time, dose: 6.2 micrograms/kg/injection, schedule: Q01DX009 (ip), vehicle: water, higher = longer survival",111 % of control
same,T/C,"endpoint: median survival time, dose: 9.4 micrograms/kg/injection, schedule: Q04DX003 (ip), vehicle: water, higher = longer survival",108 % of control
same,T/C,"endpoint: median survival time, dose: 12.5 micrograms/kg/injection, schedule: Q01DX009 (ip), vehicle: water, higher = longer survival",87 % of control
same,T/C,"endpoint: median survival time, dose: 18.8 micrograms/kg/injection, schedule: Q04DX003 (ip), vehicle: water, higher = longer survival",109 % of control
same,T/C,"endpoint: median survival time, dose: 37.5 micrograms/kg/injection, schedule: Q04DX003 (ip), vehicle: water, higher = longer survival",108 % of control
N[C@H](C(=O)O)[C@@H]1CC(Cl)=NO1,T/C,"endpoint: median survival time, dose: 2.5 mg/kg/injection, schedule: Q01DX005 (ip), vehicle: saline, higher = longer survival",92 % of control
same,T/C,"endpoint: median survival time, dose: 5.0 mg/kg/injection, schedule: Q01DX005 (ip), vehicle: saline, higher = longer survival",67 % of control
same,T/C,"endpoint: median survival time, dose: 10.0 mg/kg/injection, schedule: Q01DX005 (ip), vehicle: saline, higher = longer survival",111 % of control
same,T/C,"endpoint: median survival time, dose: 20.0 mg/kg/injection, schedule: Q01DX005 (ip), vehicle: saline, higher = longer survival",62 % of control
same,T/C,"endpoint: median survival time, dose: 25.9 mg/kg/injection, schedule: Q04DX002 (ip), vehicle: saline, higher = longer survival",114 % of control and 121 % of control
same,T/C,"endpoint: median survival time, dose: 43.2 mg/kg/injection, schedule: Q04DX002 (ip), vehicle: saline, higher = longer survival",111 % of control and 112 % of control
same,T/C,"endpoint: median survival time, dose: 72.0 mg/kg/injection, schedule: Q04DX002 (ip), vehicle: saline, higher = longer survival",106 % of control and 107 % of control
same,T/C,"endpoint: median survival time, dose: 200.0 mg/kg/injection, schedule: Q04DX002 (ip), vehicle: saline, higher = longer survival",100 % of control and 102 % of control
same,T/C,"endpoint: median survival time, dose: 2.5 ml/mouse/injection, schedule: Q01DX005 (ip), vehicle: saline, higher = longer survival",92 % of control
same,T/C,"endpoint: median survival time, dose: 5.0 ml/mouse/injection, schedule: Q01DX005 (ip), vehicle: saline, higher = longer survival",68 % of control
same,T/C,"endpoint: median survival time, dose: 10.0 ml/mouse/injection, schedule: Q01DX005 (ip), vehicle: saline, higher = longer survival",108 % of control
CCCCC[C@H](O)/C=C/[C@@H]1[C@@H](C/C=C\CCCC(=O)O)[C@@H](O)C[C@H]1O,T/C,"endpoint: median survival time, dose: 2.5 mg/kg/injection, schedule: Q04DX003 (ip), vehicle: saline, higher = longer survival",118 % of control
same,T/C,"endpoint: median survival time, dose: 5.0 mg/kg/injection, schedule: Q04DX003 (ip), vehicle: saline, higher = longer survival",105 % of control
same,T/C,"endpoint: median survival time, dose: 10.0 mg/kg/injection, schedule: Q04DX003 (ip), vehicle: saline, higher = longer survival",95 % of control
same,T/C,"endpoint: median survival time, dose: 20.0 mg/kg/injection, schedule: Q04DX003 (ip), vehicle: saline, higher = longer survival",118 % of control
same,T/C,"endpoint: median survival time, dose: 40.0 mg/kg/injection, schedule: Q04DX003 (ip), vehicle: saline, higher = longer survival",87 % of control
same,T/C,"endpoint: median survival time, dose: 80.0 mg/kg/injection, schedule: Q04DX003 (ip), vehicle: saline, higher = longer survival",93 % of control
same,T/C,"endpoint: median survival time, dose: 160.0 mg/kg/injection, schedule: Q04DX003 (ip), vehicle: saline, higher = longer survival",87 % of control
same,T/C,"endpoint: median survival time, dose: 320.0 mg/kg/injection, schedule: Q04DX003 (ip), vehicle: saline, higher = longer survival",106 % of control
COC(=O)C[C@](O)(CCC(C)(C)O)C(=O)O[C@@H]1C(OC)=C[C@]23CCCN2CCc2cc4c(cc2[C@H]13)OCO4,T/C,"endpoint: mean tumor weight, dose: 0.25 mg/kg/injection, schedule: Q01DX011 (ip), vehicle: saline, higher = larger tumour",71 % of control
same,T/C,"endpoint: mean tumor weight, dose: 0.5 mg/kg/injection, schedule: Q01DX011 (ip), vehicle: saline, higher = larger tumour",85 % of control
same,T/C,"endpoint: mean tumor weight, dose: 2.0 mg/kg/injection, schedule: Q01DX011 (ip), vehicle: saline, higher = larger tumour",68 % of control
CC[C@@H](C(=O)[C@@H](C)[C@@H](O)[C@H](C)CCc1ccc(C)c(O)c1C(=O)O)[C@H]1O[C@](CC)([C@H]2CC[C@](O)(CC)[C@H](C)O2)C[C@@H]1C,T/C,"endpoint: median survival time, dose: 0.78 mg/kg/injection, schedule: Q01DX009 (ip), vehicle: Klucel (hydroxypropylcellulose) (HPC), higher = longer survival",113 % of control
same,T/C,"endpoint: median survival time, dose: 1.56 mg/kg/injection, schedule: Q01DX009 (ip), vehicle: Klucel (hydroxypropylcellulose) (HPC), higher = longer survival",111 % of control
same,T/C,"endpoint: median survival time, dose: 3.12 mg/kg/injection, schedule: Q01DX009 (ip), vehicle: Klucel (hydroxypropylcellulose) (HPC), higher = longer survival",93 % of control
same,T/C,[1],96 % of control
same,T/C,[2],96 % of control
C=C(C)C12OC3(c4ccccc4)OC1C1C4OC4(CO)C(O)C4(O)C(=O)C(C)=CC4C1(O3)C(C)C2OC(=O)c1ccccc1 (centres undefined),T/C,"endpoint: median survival time, dose: 0.1 mg/kg/injection, schedule: Q01DX009 (ip), vehicle: saline, higher = longer survival",100 % of control
same,T/C,"endpoint: median survival time, dose: 0.2 mg/kg/injection, schedule: Q01DX009 (ip), vehicle: saline, higher = longer survival",100 % of control
same,T/C,"endpoint: median survival time, dose: 0.4 mg/kg/injection, schedule: Q01DX009 (ip), vehicle: saline, higher = longer survival",100 % of control
same,T/C,"endpoint: median survival time, dose: 0.8 mg/kg/injection, schedule: Q01DX009 (ip), vehicle: saline, higher = longer survival",94 % of control
O=NN(CCCl)C(=O)N[C@H]1CCCC[C@H]1Cl,T/C,"endpoint: median survival time, dose: 22.5 mg/kg/injection, schedule: Q01DX001 (ip), vehicle: Klucel (hydroxypropylcellulose) (HPC), higher = longer survival",106 % of control
same,T/C,"endpoint: median survival time, dose: 360.0 mg/kg/injection, schedule: Q01DX001 (ip), vehicle: Klucel (hydroxypropylcellulose) (HPC), higher = longer survival",102 % of control
same,T/C,"endpoint: median tumor weight (est.), dose: 45.0 mg/kg/injection, schedule: Q01DX001 (ip), vehicle: carboxymethylcellulose (CMC), higher = larger tumour",89 % of control
same,T/C,"endpoint: median tumor weight (est.), dose: 90.0 mg/kg/injection, schedule: Q01DX001 (ip), vehicle: carboxymethylcellulose (CMC), higher = larger tumour",6 % of control
same,T/C,"endpoint: median tumor weight (est.), dose: 130.0 mg/kg/injection, schedule: Q01DX001 (ip), vehicle: carboxymethylcellulose (CMC), higher = larger tumour",8 % of control
CCCCCCCCCCCC(c1ccccc1)[N+](C)(C)C (centres undefined),T/C,"endpoint: median survival time, dose: 0.5 mg/kg/injection, schedule: Q01DX009 (ip), vehicle: saline, higher = longer survival",102 % of control
same,T/C,"endpoint: median survival time, dose: 1.0 mg/kg/injection, schedule: Q01DX009 (ip), vehicle: saline, higher = longer survival",96 % of control
same,T/C,"endpoint: median survival time, dose: 2.0 mg/kg/injection, schedule: Q01DX009 (ip), vehicle: saline, higher = longer survival",93 % of control
ClCCN(CCCl)CC(Cl)COc1cccc2ccccc12 (centres undefined),T/C,"endpoint: median survival time, dose: 1.25 mg/kg/injection, schedule: Q01DX009 (ip), vehicle: Klucel (hydroxypropylcellulose) (HPC), higher = longer survival",92 % of control and 103 % of control
same,T/C,"endpoint: median survival time, dose: 2.5 mg/kg/injection, schedule: Q01DX009 (ip), vehicle: Klucel (hydroxypropylcellulose) (HPC), higher = longer survival",96 % of control and 103 % of control
same,T/C,"endpoint: median survival time, dose: 5.0 mg/kg/injection, schedule: Q01DX009 (ip), vehicle: Klucel (hydroxypropylcellulose) (HPC), higher = longer survival",97 % of control and 101 % of control
same,T/C,"endpoint: median survival time, dose: 10.0 mg/kg/injection, schedule: Q01DX009 (ip), vehicle: Klucel (hydroxypropylcellulose) (HPC), higher = longer survival",92 % of control and 110 % of control
same,T/C,"endpoint: median survival time, dose: 20.0 mg/kg/injection, schedule: Q01DX009 (ip), vehicle: Klucel (hydroxypropylcellulose) (HPC), higher = longer survival",96 % of control and 106 % of control
same,T/C,"endpoint: median survival time, dose: 40.0 mg/kg/injection, schedule: Q01DX009 (ip), vehicle: Klucel (hydroxypropylcellulose) (HPC), higher = longer survival",97 % of control
